From patent US20240246937A1 (MERCK SHARP & DOHME LLC, priority 2021, published 2024)

Each molecule was assayed against recombinant IL4I1 (Homo sapiens (Human), UniProt Q96RQ9) (assay: IL4I1 Enzymatic Assay (Amplex Red/HRP coupled fluorescence detection of H2O2)). Settings: 240 min; recombinant IL4I1, four-hour pre-incubation with compound.
Format: biochemical
How it was run: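 Ten-point, 1:3 compound titrations were fitted by four-parameter sigmoidal regression to give EC50. Resorufin fluorescence (544/590 nm) from Amplex Red/HRP-coupled H2O2 detection was read 120 min after adding 1 mM each aromatic amino acid to 1 nM IL4I1, following a 4 h compound pre-incubation in pH 7.0 Hepes buffer.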

Chain of recombinant IL4I1 (Q96RQ9 22-567): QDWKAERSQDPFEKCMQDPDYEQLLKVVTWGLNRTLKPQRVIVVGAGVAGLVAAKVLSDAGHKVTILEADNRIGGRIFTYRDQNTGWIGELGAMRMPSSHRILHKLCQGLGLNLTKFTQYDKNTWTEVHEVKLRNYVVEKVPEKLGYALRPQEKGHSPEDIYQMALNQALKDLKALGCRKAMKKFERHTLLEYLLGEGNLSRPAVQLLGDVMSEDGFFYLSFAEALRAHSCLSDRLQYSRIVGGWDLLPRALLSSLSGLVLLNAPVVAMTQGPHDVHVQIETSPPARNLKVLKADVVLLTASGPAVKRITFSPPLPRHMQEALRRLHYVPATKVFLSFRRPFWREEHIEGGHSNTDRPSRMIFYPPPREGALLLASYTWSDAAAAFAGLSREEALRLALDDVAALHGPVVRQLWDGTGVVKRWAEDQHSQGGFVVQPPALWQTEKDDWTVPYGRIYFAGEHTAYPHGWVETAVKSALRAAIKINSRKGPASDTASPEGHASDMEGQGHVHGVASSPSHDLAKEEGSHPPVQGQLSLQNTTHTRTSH

| EC50 | SMILES |
| --- | --- |
| 4 nM | O=C1C(=O)N([C@H]2C[C@H]3C[C@H]3C2)CCN1Cc1cc(-c2ccccc2)no1 [Example 170, 1-((cis)-bicyclo[3.1.0]hexan-3-yl)-4-((3-phenylisoxazol-5-yl)methyl)piperazine-2,3-dione] |
| 6 nM | O=C1C(=O)N(C23CC(C2)C3)CCN1Cc1cc(-c2ccccc2)no1 [Example 171, 1-(bicyclo[1.1.1]pentan-1-yl)-4-((3-phenylisoxazol-5-yl)methyl)piperazine-2,3-dione] |
| 7 nM | O=c1c(=O)n(C23CC(C2)C3)ccn1Cc1cc(-c2ccccn2)no1 [Example 172, 1-(bicyclo[1.1.1]pentan-1-yl)-4-((3-(pyridin-2-yl)isoxazol-5-yl)methyl)-1,4-dihydropyrazine-2,3-dione] |
| 14 nM | O=c1c(=O)n(C2CCC2)ccn1Cc1cc(-c2ccccc2)sn1 [Example 173, 1-cyclobutyl-4-((5-phenylisothiazol-3-yl)methyl)-1,4-dihydropyrazine-2,3-dione] |
| 39 nM | O=C1C(=O)N(C2CCC2)CCN1Cc1cn(-c2ccccc2)cn1 [Example 174, 1-cyclobutyl-4-((1-phenyl-1H-imidazol-4-yl)methyl)piperazine-2,3-dione] |
| 14 nM | O=c1c(=O)n(C2CCC2)ccn1Cc1cn(-c2ccccc2)cn1 [Example 175, 1-cyclobutyl-4-((1-phenyl-1H-imidazol-4-yl)methyl)-1,4-dihydropyrazine-2,3-dione] |
| 40 nM | O=C1C(=O)N(C2CCC2)CCN1Cc1ccc(-n2ncnn2)cn1 [Example 176, 1-((5-(2H-tetrazol-2-yl)pyridin-2-yl)methyl)-4-cyclobutylpiperazine-2,3-dione] |
| 84 nM | O=C1C(=O)N(C2CCC2)CCN1CC12CC(c3ccccn3)(C1)C2 [Example 177, 1-cyclobutyl-4-((3-(pyridin-2-yl)bicyclo[1.1.1]pentan-1-yl)methyl)piperazine-2,3-dione] |
| 52 nM | CC1CN(Cc2ccc(-n3nccn3)cn2)C(=O)C(=O)N1C1CCC1 (centres unmarked) [Example 178, 1-((5-(2H-1,2,3-triazol-2-yl)pyridin-2-yl)methyl)-4-cyclobutyl-5-methylpiperazine-2,3-dione] |
| 13 nM | O=C1C(=O)N(C23CC(C2)C3)CCN1Cc1nnc(-c2ccccc2Cl)s1 [Example 179, 1-(bicyclo[1.1.1]pentan-1-yl)-4-((5-(2-chlorophenyl)-1,3,4-thiadiazol-2-yl)methyl)piperazine-2,3-dione] |
| 10 nM | CC1(n2ccn(Cc3cc(-c4ccccc4)no3)c(=O)c2=O)CCC1 [Example 181, 1-(1-methylcyclobutyl)-4-((3-phenylisoxazol-5-yl)methyl)-1,4-dihydropyrazine-2,3-dione] |
| 24 nM | O=C1C(=O)N(C2CC3CC2C3)CCN1Cc1ccc(-c2ccccc2)nn1 (centres unmarked) [Example 183, 1-(bicyclo[2.1.1]hexan-2-yl)-4-((6-phenylpyridazin-3-yl)methyl)piperazine-2,3-dione] |
| 25 nM | O=C1C(=O)N(C2CC3CC2C3)CCN1Cc1ccc(-c2ccccc2F)nn1 (centres unmarked) [Example 184, 1-(bicyclo[2.1.1]hexan-2-yl)-4-((6-(2-fluorophenyl)pyridazin-3-yl)methyl)piperazine-2,3-dione] |
| 8 nM | CC1(N2CCN(Cc3cc(-c4cccc(F)c4)no3)C(=O)C2=O)CCC1 [Example 185, 1-((3-(3-fluorophenyl)isoxazol-5-yl)methyl)-4-(1-methylcyclobutyl)piperazine-2,3-dione] |
| 4 nM | CC1(n2ccn(Cc3cc(-c4cccc(F)c4)no3)c(=O)c2=O)CCC1 [Example 186, 1-((3-(3-fluorophenyl)isoxazol-5-yl)methyl)-4-(1-methylcyclobutyl)-1,4-dihydropyrazine-2,3-dione] |
| 8 nM | O=c1c(=O)n(C23CC(C2)C3)ccn1Cc1cc(-c2nccs2)on1 [Example 187, 1-(bicyclo[1.1.1]pentan-1-yl)-4-((5-(thiazol-2-yl)isoxazol-3-yl)methyl)-1,4-dihydropyrazine-2,3-dione] |
| 10 nM | CC1(N2CCN(Cc3cc(-c4ccc(F)cc4)no3)C(=O)C2=O)CCC1 [Example 188, 1-((3-(4-fluorophenyl)isoxazol-5-yl)methyl)-4-(1-methylcyclobutyl)piperazine-2,3-dione] |
| 4 nM | CC1(n2ccn(Cc3cc(-c4ccc(F)cc4)no3)c(=O)c2=O)CCC1 [Example 189, 1-((3-(4-fluorophenyl)isoxazol-5-yl)methyl)-4-(1-methylcyclobutyl)-1,4-dihydropyrazine-2,3-dione] |
| 31 nM | CC1(N2CCN(CC34CC(c5ccccc5)(C3)C4(F)F)C(=O)C2=O)CCC1 [Example 190, 1-((2,2-difluoro-3-phenylbicyclo[1.1.1]pentan-1-yl)methyl)-4-(1-methylcyclobutyl)piperazine-2,3-dione] |

| EC50 | SMILES |
| --- | --- |
| 35 nM | O=C1C(=O)N(C23CC(C2)C3)CCN1CC12CC(c3ccccc3)(C1)C2(F)F [Example 191, 1-(bicyclo[1.1.1]pentan-1-yl)-4-((2,2-difluoro-3-phenylbicyclo[1.1.1]pentan-1-yl)methyl)piperazine-2,3-dione] |
| 13 nM | O=c1c(=O)n(C2CCC2)ccn1Cc1ccc(-c2c(F)cccc2F)nn1 [Example 192, 1-cyclobutyl-4-((6-(2,6-difluorophenyl)pyridazin-3-yl)methyl)-1,4-dihydropyrazine-2,3-dione] |
| 8 nM | O=c1c(=O)n(C23CC(C2)C3)ccn1Cc1ccc(-c2ccccc2F)nn1 [Example 193, 1-(bicyclo[1.1.1]pentan-1-yl)-4-((6-(2-fluorophenyl)pyridazin-3-yl)methyl)-1,4-dihydropyrazine-2,3-dione] |
| 41 nM | O=C1C(=O)N(C2(CF)CC2)CCN1Cc1nnc(-c2ccccc2F)s1 [Example 194, 1-(1-(fluoromethyl)cyclopropyl)-4-((5-(2-fluorophenyl)-1,3,4-thiadiazol-2-yl)methyl)piperazine-2,3-dione] |
| 48 nM | O=C1C(=O)N(C2(CF)CC2)CCN1Cc1ccc(-c2ccccc2F)nn1 [Example 195, 1-(1-(fluoromethyl)cyclopropyl)-4-((6-(2-fluorophenyl)pyridazin-3-yl)methyl)piperazine-2,3-dione] |
| 11 nM | O=C1C(=O)N(C2(CF)CC2)CCN1Cc1cc(-c2ccccc2)no1 [Example 196, 1-(1-(fluoromethyl)cyclopropyl)-4-((3-phenylisoxazol-5-yl)methyl)piperazine-2,3-dione] |
| 33 nM | CC1(n2ccn(Cc3ccc(-c4ccccc4F)nn3)c(=O)c2=O)CC1 [Example 197, 1-((6-(2-fluorophenyl)pyridazin-3-yl)methyl)-4-(1-methylcyclopropyl)-1,4-dihydropyrazine-2,3-dione] |
| 76 nM | N#CC1(n2ccn(Cc3ccc(-c4ccccc4F)nn3)c(=O)c2=O)CC1 [Example 198, 1-(4-((6-(2-fluorophenyl)pyridazin-3-yl)methyl)-2,3-dioxo-3,4-dihydropyrazin-1(2H)-yl)cyclopropane-1-carbonitrile] |
| 24 nM | CC1(n2ccn(Cc3cc(-c4ccccn4)no3)c(=O)c2=O)CC1 [Example 199, 1-(1-methylcyclopropyl)-4-((3-(pyridin-2-yl)isoxazol-5-yl)methyl)-1,4-dihydropyrazine-2,3-dione] |
| 68 nM | N#CC1(n2ccn(Cc3cc(-c4ccccn4)no3)c(=O)c2=O)CC1 [Example 200, 1-(2,3-dioxo-4-((3-(pyridin-2-yl)isoxazol-5-yl)methyl)-3,4-dihydropyrazin-1(2H)-yl)cyclopropane-1-carbonitrile] |
| 30 nM | O=c1c(=O)n(C23CC(F)(C2)C3)ccn1Cc1ccc(-c2ccccc2F)nn1 [Example 201, 1-(3-fluorobicyclo[1.1.1]pentan-1-yl)-4-((6-(2-fluorophenyl)pyridazin-3-yl)methyl)-1,4-dihydropyrazine-2,3-dione] |
| 44 nM | CC1(n2ccn(Cc3ccc(-n4nccn4)cn3)c(=O)c2=O)CC1 [Example 202, 1-((5-(2H-1,2,3-triazol-2-yl)pyridin-2-yl)methyl)-4-(1-methylcyclopropyl)-1,4-dihydropyrazine-2,3-dione] |
| 19 nM | O=c1c(=O)n(C23CC(F)(C2)C3)ccn1Cc1cc(-c2ccccn2)no1 [Example 203, 1-(3-fluorobicyclo[1.1.1]pentan-1-yl)-4-((3-(pyridin-2-yl)isoxazol-5-yl)methyl)-1,4-dihydropyrazine-2,3-dione] |
| 78 nM | N#CC1(n2ccn(Cc3ccc(-c4nccs4)nn3)c(=O)c2=O)CC1 [Example 204, 1-(2,3-dioxo-4-((6-(thiazol-2-yl)pyridazin-3-yl)methyl)-3,4-dihydropyrazin-1(2H)-yl)cyclopropane-1-carbonitrile] |
| 24 nM | O=c1c(=O)n(C23CC(F)(C2)C3)ccn1Cc1ccc(-c2nccs2)nn1 [Example 205, 1-(3-fluorobicyclo[1.1.1]pentan-1-yl)-4-((6-(thiazol-2-yl)pyridazin-3-yl)methyl)-1,4-dihydropyrazine-2,3-dione] |
| 28 nM | CC1(n2ccn(Cc3cc(-c4ccccn4)on3)c(=O)c2=O)CC1 [Example 206, 1-(1-methylcyclopropyl)-4-((5-(pyridin-2-yl)isoxazol-3-yl)methyl)-1,4-dihydropyrazine-2,3-dione] |
| 43 nM | N#CC1(n2ccn(Cc3cc(-c4ccccn4)on3)c(=O)c2=O)CC1 [Example 207, 1-(2,3-dioxo-4-((5-(pyridin-2-yl)isoxazol-3-yl)methyl)-3,4-dihydropyrazin-1(2H)-yl)cyclopropane-1-carbonitrile] |
| 21 nM | O=c1c(=O)n(C23CC(F)(C2)C3)ccn1Cc1cc(-c2ccccn2)on1 [Example 208, 1-(3-fluorobicyclo[1.1.1]pentan-1-yl)-4-((5-(pyridin-2-yl)isoxazol-3-yl)methyl)-1,4-dihydropyrazine-2,3-dione] |
| 26 nM | CC1(n2ccn(Cc3cc(-c4cccnc4)on3)c(=O)c2=O)CC1 [Example 209, 1-(1-methylcyclopropyl)-4-((5-(pyridin-3-yl)isoxazol-3-yl)methyl)-1,4-dihydropyrazine-2,3-dione] |
